System: EpidermFT™ Skin Model (EFT-400) full thickness skin cultures
Assay: Affymetrix GeneChip HG U133 Plus 2.0 microarray global gene expression, agent-exposed vs untreated skin cultures
Format: cell-based, human
Conditions: 0.5% vs untreated, 24 hr; down

## OCc1ccccc1O[C@@H]1O[C@H](CO)[C@@H](O)[C@H](O)[C@H]1O [Salicin, 2-(Hydroxymethyl)phenyl β-D-glucospyranoside]
  Fold change HAS3 (223541_at): 3.713
  Fold change HIP1R (209558_s_at): 3.322
  Fold change HMGCR (202539_s_at): 3.621
  Fold change HMGCR (202540_s_at): 3.753
  Fold change HMOX1 (203665_at): 3.193
  Fold change HOMER2 (217080_s_at): 3.789
  Fold change HOOK1 (219976_at): 3.54
  Fold change HS3ST6 (239547_at): 3.557
  Fold change HSD17B1 (205829_at): 3.15
  Fold change HYAL4 (220249_at): 3.117
  Fold change IL1F5 (222223_s_at): 3.177
  Fold change IL28RA (244261_at): 3.252
  Fold change IRX3 (229638_at): 3.118
  Fold change ITGAM (205786_s_at): 3.645
  Fold change JUB (225806_at): 3.698
  Fold change JUB (225807_at): 3.198
  Fold change JUB (1553764_a_at): 3.662
  Fold change KCTD11 (235857_at): 3.157
  Fold change KIAA0485 (214295_at): 3.094
  Fold change KIAA0513 (204546_at): 3.413
  Fold change KIAA0746 /// SERINC2 (212314_at): 3.628
  Fold change KIAA1239 (230765_at): 3.239
  Fold change KIAA1609 (65438_at): 3.527
  Fold change KIAA1609 (221843_s_at): 3.461
  Fold change KIF21A (226003_at): 3.77
  Fold change KIF21A (231875_at): 3.78
  Fold change KLF5 (209211_at): 3.563
  Fold change KLHL18 (1557165_s_at): 3.408
  Fold change KLK11 (205470_s_at): 3.318
  Fold change KLK13 (205783_at): 3.619
  Fold change KRT15 (204734_at): 3.6
  Fold change KRT34 (206969_at): 3.171
  Fold change LAD1 (203287_at): 3.072
  Fold change LOC283070 (226382_at): 3.685
  Fold change LOC653602 (229546_at): 3.058
  Fold change LOC728377 (228596_at): 3.786
  Fold change LOC100128178 (232090_at): 3.299
  Fold change LOC100128443 /// MAST4 (225613_at): 3.231
  Fold change LOC100128501 (229296_at): 3.452
  Fold change LOC100130885 (236213_at): 3.36
  Fold change LPCAT2 (227889_at): 3.256
  Fold change LYPLA1 (203007_x_at): 3.221
  Fold change MACC1 (232151_at): 3.738
  Fold change MACC1 (1566766_a_at): 3.181
  Fold change MBD1 (241813_at): 3.076
  Fold change ME1 (204058_at): 3.413
  Fold change ME1 (204059_s_at): 3.029
  Fold change MICALCL (243611_at): 3.335
  Fold change MICALL1 (221779_at): 3.602
  Fold change MKNK2 (223199_at): 3.427
  Fold change MLLT4 (224685_at): 3.09
  Fold change MPP7 (1564308_a_at): 3.034
  Fold change MPZL2 (203780_at): 3.468
  Fold change MPZL2 (230518_at): 3.326
  Fold change MSMB (207430 s_at): 3.689
  Fold change MTUS1 (212095_s_at): 3.034
  Fold change MTUS1 (212096_s_at): 3.773
  Fold change MYO5B (225301_s_at): 3.815
  Fold change NDRG2 (206453_s_at): 3.922
  Fold change NDRG2 (214279_s_at): 3.705
  Fold change NLRX1 (1553695_a_at): 3.887
  Fold change NOL3 (221566_s_at): 3.704
  Fold change NOL3 (221567_at): 3.416
  Fold change NT5C3 (223298_s_at): 3.641
  Fold change OMG (238720_at): 3.099
  Fold change P2RY2 (206277_at): 3.679
  Fold change P11 (206605_at): 3.785
  Fold change PANK1 (226649_at): 3.261
  Fold change PCDH7 (228640_at): 3.307
  Fold change PCSK6 (210553_x_at): 3.573
  Fold change PITX2 (207558_s_at): 3.504
  Fold change PLCXD1 (218951_s_at): 3.092
  Fold change PLLP (204519_s_at): 3.781
  Fold change PLXDC2 (227276_at): 3.44
  Fold change PLXNA2 (213030_s_at): 3.036
  Fold change PNPLA1 (1553364_at): 3.553
  Fold change PPID (228469_at): 3.327
  Fold change PPP1R13L (218849_s_at): 3.053
  Fold change PPP2R2C (223574_x_at): 3.091
  Fold change PSG4 (208191_x_at): 3.458
  Fold change PSPH (205048_s_at): 3.381
  Fold change PTGER3 (210375_at): 3.745
  Fold change PTPN3 (203997_at): 3.799
  Fold change PTPN3 (227944_at): 3.077
  Fold change RAB3D (225001_at): 3.306
  Fold change RAB7B (230266_at): 3.207
  Fold change RAET1E (1552777_a_at): 3.558
  Fold change RASAL1 (219752_at): 3.507
  Fold change RBM35A (219121_s_at): 3.786
  Fold change RDH13 (1559190_s_at): 3.726
  Fold change RHBDL2 (1554895_a_at): 3.193
  Fold change RHOD (209885_at): 3.12
  Fold change RHOU (223168_at): 3.283
  Fold change S1PR5 (230464_at): 3.789
  Fold change S100P (204351_at): 3.66
  Fold change SCD (200832_s_at): 3.77
  Fold change SCD /// SCDOS (223839_s_at): 3.34
  Fold change SCN4B (236359_at): 3.105
  Fold change SDC1 (201287_s_at): 3.32
  Fold change SEPT8 (209000_s_at): 3.657
  Fold change SERPINB3 (209719_x_at): 3.665
  Fold change SERPINB3 (209720_s_at): 3.147
  Fold change SERPINB7 (206421_s_at): 3.623
  Fold change SERPINB12 (1553057_at): 3.711
  Fold change SFT2D2 (214838_at): 3.904
  Fold change SGPL1 (212322_at): 3.184
  Fold change SLC4A11 (223748_at): 3.82
  Fold change SLC5A1 (242773_at): 3.714
  Fold change SLC22A3 (205421_at): 3.516
  Fold change SLC38A1 (224579_at): 3.045
  Fold change SLC38A4 (220786 s_at): 3.844
  Fold change SMPD3 (231732_at): 3.594
  Fold change SORL1 (203509_at): 3.285
  Fold change SPRR3 (232082_x_at): 3.303

Source: US20120034613A1, “Apparatus and Method for Testing Relationships Between Gene Expression and Physical Appearance of Skin” (NSE Products, Inc., priority 2010, published 2012)
